Assay results from ChEMBL document CHEMBL3507680, “University of Dundee, Gates Library screen for HepG2 cell viability”.

Assay: Human HepG2 cell viability assay in 384 well format
Format: toxicity, cell-based
Design: dose 125 nL, time 70.5 hour; cytotoxicity at 70.5 h: concentration not given beside the values
Conditions: HepG2 cells, read-out: Inhibition

| Compound | cytotoxicity at 70.5 h [%] |
| --- | --- |
| CC(=O)N1CCc2[nH]nc(C(=O)N3CC=CC3)c2C1 | 34.9 |
| COC[C@@]12CCC[C@@H]1CN(C(=O)Cc1ccco1)C2 | -5.39 |
| Cc1cc(CN2CCC(C3CCN(CCc4ccccc4)C3)CC2)[nH]n1 (centres undefined) | -0.374 |
| CCCn1nccc1C(=O)N1CCN(C(=O)C2CC2)[C@@H]2CS(=O)(=O)C[C@@H]21 | 11.1 |
| CC(C)N(CCO)C(=O)C1CCC(=O)N(Cc2ccc(Cl)cc2)C1 (centres undefined) | -4.75 |
| Cc1cccc(N2CCC3(CCCN3Cc3cn(C)nc3C)CC2)n1 | -9.08 |
| CN(C)C(C(=O)N1CCC(CCO)CC1)c1ccccc1F (centres undefined) | 8.83 |
| CNC(=O)c1cn2cc(-c3cccc(Cl)c3)n(CC3CC3)c(=O)c2n1 | -8.05 |
| CN(CC1(CO)CCOCC1)[C@@H]1c2ccccc2C2(CCNCC2)[C@H]1O | 19 |
| CC(C)N1CCCN(c2nc(-c3cccnc3)nc3c2cnn3C)CC1 | 36.6 |
| Cc1noc(-c2ccnc(Oc3ccc(CN4CCCC4)cc3C)c2)n1 | -4.76 |
| COCCn1ccnc1CN1CCc2[nH]cnc2C1c1ccccn1 (centres undefined) | -11.2 |
| Cc1ccc(NCCCNc2nccc(-c3cn(C)nc3C)n2)nc1 | 13.9 |
| CN1C(=O)C2(CCN(C(=O)c3ccccc3)CC2)c2cc(F)ccc21 | -7.93 |
| CN1CCC2(CC1)C(=O)N(C)c1ccc(F)cc12 | 27.9 |
| Cn1cnc2c(-c3cccnc3)nc(C3CCNCC3)cc21 | 15.6 |
| Cc1ccc(CN2CCCC3(CCCN3S(C)(=O)=O)C2)s1 (centres undefined) | -8 |
| Cc1cnc(N2CCc3cc(C(=O)O)c(N(C)C)nc3CC2)nc1 | -7.94 |
| Cc1noc([C@@]23CCO[C@@H]2CCN(Cc2scnc2C)C3)n1 | -13.1 |
| Cc1ccsc1C(=O)N1CCC2(CC1)C(=O)N(C)CCN2CC1CC1 | -12.8 |
| CNC(=O)c1cc2c(nc1N(C)C)CCN(c1ncc(F)cn1)CC2 | -13.5 |
| COc1ccc(S(=O)(=O)N2CCN(C)c3ncccc3C2)cc1 | -5.97 |
| COCCN1CCC12CCN(C(=O)c1ccc(C)nc1)C2 (centres undefined) | -16.4 |
| CCOCc1nnc2n1CCN(Cc1c(C)noc1C)CC2 | 16.5 |
| Cc1cnc(N2CC3(CCN(S(=O)(=O)C4CC4)C3)C2)nc1 | -11.5 |
| Fc1cccc(-c2nnn3c2COCC(CNCc2nccs2)C3)c1 (centres undefined) | -11.8 |
| Cc1nc(CO[C@H]2CN(C(=O)c3cccn3C)[C@@H]3COC[C@H]23)cs1 | -11.5 |

| Compound | cytotoxicity at 70.5 h [%] |
| --- | --- |
| CCN(C(=O)c1ccc2nnc(C3CCN(CCOC)C3)n2c1)C(C)C (centres undefined) | -13.6 |
| Cn1ccc(C(=O)N2C[C@@H]3CCN(c4cccnc4)C[C@@H]3C2)n1 | -4.89 |
| O=C([C@H]1COC[C@H]2CN(C3CCOCC3)C[C@H]21)N1CCC(F)CC1 | -8.13 |
| c1csc(CNCC2COCc3c(-c4ccoc4)nnn3C2)n1 (centres undefined) | -8.83 |
| O=C([C@@H]1CC[C@@H]2[C@@H](CCN2CCOCc2ccccc2)O1)N1CCCC1 | 13 |
| COC[C@@]12CCO[C@@H]1CCN(Cc1sccc1C)C2 | -10.6 |
| O=C(c1cnccn1)N1C[C@@H]2CCN(c3cnccn3)C[C@@H]2C1 | -7.66 |
| Cc1ccsc1C(=O)N1CCc2ncc(CN(C)C)n2CC1 | -7.39 |
| Cc1cc(C(=O)N2CCc3ncc(CN4CCCC4)n3CC2)no1 | -11 |
| O=C(c1cscn1)N1CCc2ncc(CN3CCCC3)n2CC1 | -8.65 |
| COC1CCC[C@@H]2CN(Cc3csc(C)n3)C[C@H]12 (some centres undefined) | -4.08 |
| Cn1ccnc1C(=O)NC[C@@H]1OC[C@H]2CN(CC3CC3)CC[C@H]21 | -9.31 |
| CN(C)C(=O)COC1COC2(CCN(CC3CC3)CC2)C1 (centres undefined) | -5.8 |
| O=C(Nc1ccccc1)c1ccc2c(c1)C1(CCCCC1)CN2 | -2.11 |
| CCOCCN1C[C@H](C(=O)Nc2cccnc2)[C@@H]2CCO[C@@H]2C1 | -4.15 |
| Cc1cccc(CN2CC[C@@H]3[C@@H]2CCN3Cc2cccs2)n1 | -5.52 |
| Cc1ccc(C(=O)N2C[C@H](N3CCOCC3)[C@@H]3OCCC[C@@H]32)cn1 | -9.11 |
| Cc1cccc(CN2CC[C@@H]3[C@@H]2CCN3C(=O)Cc2cccs2)n1 | -11.7 |
| Cc1ccc(CN2CCn3c(COc4cccnc4)cnc3C2C)o1 (centres undefined) | -7.88 |
| Cc1ccsc1CN1CCn2c(COc3cccnc3)cnc2C1C (centres undefined) | -9.93 |
| CC1c2ncc(COc3cccnc3)n2CCN1Cc1cnn(C)c1 (centres undefined) | -9.85 |
| O=C(NCCc1cccs1)[C@]12COC[C@H]1CN(Cc1ccncc1)C2 | -9.54 |
| c1ccc(CN2CCC3(CC2)CC(Oc2cccnc2)C3)nc1 | -12.3 |
| COCCN1C[C@H]2CCC[C@@H](CNc3ncccn3)[C@H]2C1 | -10.7 |
| c1ccc(CN2Cc3[nH]nc(COc4cccnc4)c3C2)nc1 | -7.63 |
| Cc1ccc(CN2CC[C@H]3CO[C@H](CN4CCN(C)CC4)[C@H]3C2)o1 | -7.33 |
| CCCN1CCC(c2nc3ccc(NCc4cccnc4)cn3n2)CC1 | -10.3 |
